The test system of one test is bone resorption (parietal bone). The test can be described thus: Bone resorption-inhibitory activity (45Ca release from newborn mouse parietal bone, hPTH (1-34) stimulated, method of Raisz). It counts as cell-based, ICR mouse. To be noted: 5 μM, Table 20, average of four pairs, read-out: bone resorption-inhibitory action, % against control. The source says: The method for determining the bone resorption-inhibitory activity of the Compound (I) and the results are shown in the following.
Bone resorption-inhibitory activity
The determination of the bone resorption-inhibitory activity basically followed the method of Raisz [J. Clin. Invest., vol. 44, pp. 103-116 (1965)].
A 1-2 days old new born ICR mouse was intraperitoneally administered with 1.5μ Ci ^45 Ca (CaCl2 solution of isotope of calcium) and parietal bone was asceptically removed the next day. The parietal bone was split into two along the central sature line and one of them was used as a control and the other was used for the experiment. The bone was preincubated in 0.5 ml of a BGJb medium (Fitton-Jackson modification, GIBCO Laboratories, U.S.A.) added with the test compound to a concentration of 5 μM or 20 μM and bovine serum albumin (1 mg/ml) at 37° C. for 2 days, and further incubated in the aforementioned medium containing 50 nM hPTH (1-34) for 3 days. After the incubation, the radioactivity of ^45 Ca in the medium and in the bone was measured and the ratio (%) of ^45 Ca released from the bone into the medium was calculated. [formula]
Using the bone obtained from the same mouse and treated in the same manner without the test compound as a control, the ratio (%) against the control was calculated according to the following equation. [formula]
The average of these values obtained from four pairs from each group was calculated.
For the molecule `CCc1cc2c(s1)-n1c(C)nnc1C(NC(=O)Nc1ccc(Cl)cc1)N=C2c1ccc(Cl)cc1` (stereo not shown) [compound 75], the inhibition at 5 µM came to 47.7%. For the molecule `CCc1cc2c(s1)-n1c(C)nnc1C(NC(=O)Nc1cccc(OC)c1)N=C2c1ccc(Cl)cc1` (stereo not shown) [compound 76], the inhibition at 5 µM came out at 29.5%. As for `CCCCCCc1cc2c(s1)-n1c(C)nnc1C(NC(=O)Nc1cccc(C)c1)N=C2c1ccc(Cl)cc1` (stereo not shown) [compound 78], the inhibition at 5 µM was determined as 45.4%. Consider `Cc1cccc(NC(=O)NC2N=C(c3ccccc3Cl)c3c(sc(C)c3C)-n3c(C)nnc32)c1` (stereo not shown) [compound 83], for which the inhibition at 5 µM came to 35%. With `CCc1cc2c(s1)-n1c(C3CCCCC3)nnc1C(NC(=O)Nc1cccc(C)c1)N=C2c1ccccc1Cl` (stereo not shown) [compound 84], the inhibition at 5 µM turned out to be 65.3%. `CCc1cc2c(s1)-n1c(C)nnc1C(NC(=O)Nc1cccc(C)c1)N=C2c1ccc(C)cc1` (stereo not shown) [compound 86]: the inhibition at 5 µM is 30.3%. Take `CCc1cc2c(s1)-n1c(C)nnc1C(NC(=O)Nc1ccccc1)N=C2c1ccc(Cl)cc1` (stereo not shown) [compound 87]: the inhibition at 5 µM came to 31.6%. For the molecule `CCc1cc2c(s1)-n1c(C)nnc1C(NC(=O)Nc1cccc(C)c1)N=C2c1ccccc1` (stereo not shown) [compound 88], the inhibition at 5 µM was 33.8%.

As for `CCc1cc2c(s1)-n1c(C)nnc1C(NC(=O)Nc1ccccc1OC)N=C2c1ccc(Cl)cc1` (stereo not shown) [compound 90], the inhibition at 5 µM turned out to be 34.2%. As to `CCc1cc2c(s1)-n1c(C)nnc1C(NC(=S)Nc1ccccc1)N=C2c1ccccc1Cl` (stereo not shown) [compound 93], the inhibition at 5 µM is 63.5%. On to `CCCCc1cc2c(s1)-n1c(C)nnc1C(NC(=O)Nc1cccc(C)c1)N=C2c1ccc(Cl)cc1` (stereo not shown) [compound 98], for which the inhibition at 5 µM is 35%. Regarding `CCc1cc2c(s1)-n1c(C3CCCCC3)nnc1C(NC(=O)Nc1ccccc1OC)N=C2c1ccccc1Cl` (stereo not shown) [compound 100], the inhibition at 5 µM was determined as 55.5%.

The test is the same for the next values; noted with them: 20 μM, Table 20, average of four pairs, read-out: bone resorption-inhibitory action, % against control.
Consider `Cc1nnc2n1-c1sc(CCCc3ccc(CC(C)C)cc3)cc1C(c1ccccc1Cl)=NC2` [compound 11], for which the inhibition at 20 µM stood at 23.4%. As for `CCCCCCCCc1ccc(CCc2cc3c(s2)-n2c(C)nnc2CN=C3c2ccccc2Cl)cc1` [compound 29], the inhibition at 20 µM came out at 16.4%. For `Cc1nnc2n1-c1sc(CCc3ccc(CC(C)C)cc3)cc1C(c1ccc(OCCN(C)C)cc1)=NC2` [compound 32], the inhibition at 20 µM amounted to 16%. On the same count and under the same terms, in the case of `CC(C)Cc1ccc(CCc2cc3c(s2)-n2c(nnc2C(C)(C)C)C(C)N=C3c2ccccc2Cl)cc1` (stereo not shown) [compound 34] it was 15.5%; in that of `Cc1nnc2n1-c1sc(CCC(=O)N3CCN(C(c4ccccc4)c4ccccc4)CC3)cc1C(c1ccccc1Cl)=NC2` [compound 36], 21.9%; in that of `CCCC1N=C(c2ccc(Cl)cc2)c2cc(CCc3ccc(CC(C)C)cc3)sc2-n2c(C)nnc21` (stereo not shown) [compound 42], 16.9%.

With `Cc1nnc2n1-c1sc(CCc3ccc(CC(C)C)cc3)cc1C(c1ccccc1Cl)=NC2CC(C)C` (stereo not shown) [compound 43], the inhibition at 20 µM came out at 21.2%.

In the case of `Cc1nnc2n1-c1sc(CCc3ccc(CC(C)C)cc3)cc1C(c1ccccc1Cl)=NC2c1ccccc1` (stereo not shown) [compound 44], the inhibition at 20 µM was 15.7%. Regarding `Cc1nnc2n1-c1sc(CCc3ccc(CC(C)C)cc3)cc1C(c1ccccc1Cl)=NC2Cc1ccccc1` (stereo not shown) [compound 46], the inhibition at 20 µM was 21.1%.

For `CCc1cc2c(s1)-n1c(C)nnc1C(NC(=O)c1cc3ccccc3[nH]1)N=C2c1ccccc1Cl` (stereo not shown) [compound 48], the inhibition at 20 µM came to 25.7%. Same read-out and setting: for `CCc1cc2c(s1)-n1c(C)nnc1C(NC(=O)c1ccccc1)N=C2c1ccccc1Cl` (stereo not shown) [compound 50] the value was 26.4%. In the case of `CCc1cc2c(s1)-n1c(C)nnc1C(NC(=O)Nc1cccc(C)c1)N=C2c1ccccc1Cl` (stereo not shown) [compound 51], the inhibition at 20 µM was 26.9%. Regarding `CCCN(CCC)C(=O)C1Cc2sc3c(c2C1)C(c1ccccc1Cl)=NCc1nnc(C)n1-3` (stereo not shown) [compound 53], the inhibition at 20 µM turned out to be 73.5%. Take `Cc1nnc2n1-c1sc3c(c1C(c1ccccc1Cl)=NC2C)CC(C(=O)N1CCOCC1)C3` (stereo not shown) [compound 54]: the inhibition at 20 µM worked out at 31.7%. As for `CC(C)Cc1ccc(CCc2cc3c(s2)N(CCN(C)C)C(=O)CN=C3c2ccccc2Cl)cc1` [compound 64], the inhibition at 20 µM came out at 25.2%. As for `CCc1cc2c(s1)-n1c(C)nnc1C(CC(=O)Nc1ccccc1OC)N=C2c1ccc(Cl)cc1` (stereo not shown) [compound 250], the inhibition at 20 µM was determined as 27.3%.

Staying with this test, now noted: Table 20, read-out: IC50 (figures in parentheses), bone resorption-inhibitory action.
By IC50 is commonly meant the point on the concentration scale where inhibition reaches its midpoint. Consider `CCc1cc2c(s1)-n1c(C)nnc1C(NC(=O)Nc1ccccc1OC)N=C2c1ccc(Cl)cc1` (stereo not shown) [compound 90], for which the IC50 came to 0.25 µM.

The test is the same for the next values; noted with them: read-out: IC50 (figures in parentheses), bone resorption-inhibitory action.
As for `Cc1nnc2n1-c1sc(CCc3ccc(CC(C)C)cc3)cc1C(c1ccccc1Cl)=NC2C` (stereo not shown) [compound 9], the IC50 amounted to 7.5 µM.

The test is the same for the next values; noted with them: read-out: bone resorption-inhibitory action, % against control.
As for `Cc1nnc2n1-c1sc(CCc3ccc(CC(C)C)cc3)cc1C(c1ccccc1)=NC2` [compound 1], the inhibition at 20 µM was 30.7%.

Regarding `Cc1nnc2n1-c1sc(CCc3ccc(CC(C)C)cc3)cc1C(c1cccc(Cl)c1)=NC2` [compound 5], the inhibition at 20 µM is 26.7%.

As for `CC(C)Cc1ccc(CCc2cc3c(s2)-n2cnnc2CN=C3c2ccccc2Cl)cc1` [compound 6], the inhibition at 20 µM is 30.2%.

For the molecule `Cc1nnc2n1-c1sc(CCc3ccc(CC(C)C)cc3)cc1C(c1ccccc1Cl)=NC2C` (stereo not shown) [compound 9], the inhibition at 20 µM amounted to 23.7%. For the molecule `Cc1nnc2n1-c1sc(CCC(=O)N3CCOCC3)cc1C(c1ccccc1Cl)=NC2` [compound 19], the inhibition at 20 µM stood at 61.7%. Turning to `CCCCCCc1cc2c(s1)-n1c(C)nnc1CN=C2c1ccccc1C` [compound 22], the inhibition at 20 µM was 23.4%. As to `CCCCCCCCCCc1cc2c(s1)-n1c(C)nnc1CN=C2c1ccccc1OC` [compound 25], the inhibition at 20 µM is 17.5%.

On to `CCCCCCCCCCCCc1cc2c(s1)-n1c(C)nnc1CN=C2c1ccccc1Cl` [compound 27], for which the inhibition at 20 µM was 17%. Regarding `Cc1nnc2n1-c1sc(Cc3ccc(CC(C)C)cc3)cc1C(c1ccccc1Cl)=NC2` [compound 28], the inhibition at 20 µM was found to be 16.5%. Turning to `Cc1nnc2n1-c1sc(CCc3ccc(CC(C)C)cc3)cc1C(c1ccccc1F)=NC2` [compound 30], the inhibition at 20 µM came out at 20.6%. In the case of `Cc1nnc2n1-c1sc(CCc3ccc(CC(C)C)cc3)cc1C(c1ccc(O)cc1)=NC2` [compound 31], the inhibition at 20 µM came out at 26.4%. For the molecule `CCCc1nnc2n1-c1sc(CCc3ccc(CC(C)C)cc3)cc1C(c1ccccc1Cl)=NC2` [compound 35], the inhibition at 20 µM is 20%. For the molecule `Cc1nnc2n1-c1sc(CCC(=O)N3CCOCC3)cc1C(c1ccccc1Cl)=NC2C` (stereo not shown) [compound 38], the inhibition at 20 µM was determined as 46%.

On to `Cc1nnc2n1-c1sc(CCCN3CCOCC3)cc1C(c1ccccc1Cl)=NC2C` (stereo not shown) [compound 40], for which the inhibition at 20 µM came to 32.8%.

With `Cc1nnc2n1-c1sc3c(c1C(c1ccccc1Cl)=N[C@H]2C)CCN(C(=O)C1CC1)C3` [compound 52], the inhibition at 20 µM turned out to be 29.9%. Take `CCCCCCc1cc2c(s1)NC(=O)CN=C2c1ccccc1Cl` [compound 60]: the inhibition at 20 µM amounted to 58.6%.

`CCCCCCCCc1cc2c(s1)N(CCN(C)C)C(=O)CN=C2c1ccccc1Cl` [compound 62]: the inhibition at 20 µM is 27.4%. On the same count and under the same terms, for `CCc1cc2c(s1)-n1c(noc1=O)CN=C2c1ccccc1Cl` [compound 66] the value was 56.3%. On to `CCc1cc2c(s1)-n1ccnc1CN=C2c1ccccc1Cl` [compound 67], for which the inhibition at 20 µM turned out to be 55.3%. In the case of `Cc1nnc2n1-c1ccc(Cl)cc1C(c1ccccc1Cl)=NC2` [compound 68], the inhibition at 20 µM stood at 57.5%. As for `Cc1nnc2n1-c1ccc(Cl)cc1C(c1ccccc1)=NC2` [compound 69], the inhibition at 20 µM is 21.9%. As to `Clc1ccc2c(c1)C(c1ccccc1Cl)=NCc1nccn1-2` [compound 70], the inhibition at 20 µM was determined as 50.3%.

The values are drawn from patent US5593988A, “Therapeutic agent for osteoporosis and diazepine compound” (Yoshitomi Pharmaceutical Industries, Ltd., priority 1991, dated 1997).
